Legend:
[1] = Brain distribution after oral or intravenous administration to normal mice; assay type: in vivo, mouse; conditions: for Kp: mouse, brain, FIG. 4C
Method: FIGS. 4A to 4C illustrate a result of showing a concentration remaining in the brain for each time period after oral (p.o. 10 mg/kg) or intravenous administration (i.v. 1 mg/kg) of N-acetyl sphingosine to normal mice (FIG. 4A), a result of showing a concentration remaining in the brain after 24 hours (FIG. 4B), and a pharmacokinetic test analysis result for a brain distribution (FIG. 4C) (n=3/group).
In order to apply the compounds of the present invention to the diagnosis of degenerative brain diseases, it is important to distribute the compounds well to the brain after administration. To confirm this, the N-AS was administered orally (10 mg/kg) or through tail vein (1 mg/kg), and then the brain was extracted by time to measure the concentration of N-AS, and after 24 hours, the brain was extracted to measure the concentration of the remaining N-AS.

wild type COX2 = biological target: T1, wild type COX2 (Homo sapiens, UniProt P35354); assay: Filter binding assay / enzymatic analysis of COX2, wild type; conditions: [14C]N-acetyl sphingosine binding to wild-type COX2, saturation plot; FIG. 3
T1 sequence (P35354 18-604): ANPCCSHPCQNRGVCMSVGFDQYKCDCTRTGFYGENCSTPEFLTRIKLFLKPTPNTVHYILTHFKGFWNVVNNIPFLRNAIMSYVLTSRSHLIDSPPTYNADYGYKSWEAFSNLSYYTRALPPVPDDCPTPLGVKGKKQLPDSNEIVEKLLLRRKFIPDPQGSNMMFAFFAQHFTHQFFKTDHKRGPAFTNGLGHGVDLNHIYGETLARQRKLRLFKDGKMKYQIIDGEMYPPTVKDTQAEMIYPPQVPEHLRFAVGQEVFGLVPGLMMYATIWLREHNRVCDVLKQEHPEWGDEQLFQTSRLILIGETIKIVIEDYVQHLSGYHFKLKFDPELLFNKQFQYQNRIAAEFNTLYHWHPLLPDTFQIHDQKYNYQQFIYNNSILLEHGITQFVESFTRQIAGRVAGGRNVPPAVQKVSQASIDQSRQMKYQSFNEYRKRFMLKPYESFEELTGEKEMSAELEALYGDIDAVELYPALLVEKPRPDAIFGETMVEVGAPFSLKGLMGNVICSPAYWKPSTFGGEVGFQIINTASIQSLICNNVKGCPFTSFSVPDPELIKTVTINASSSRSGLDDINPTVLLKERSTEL
Method: The binding activity of wild type COX2 or mutant COX2 (N181A, T564A, S565A, S567A) and N-acetyl sphingosine (N-AS) was analyzed by filter binding assay (Nat Commun. 2018 Apr. 16; 9(1):1479).
The binding rate (Vbinding) of [^14C]N-acetyl sphingosine (American Radiolabeled Chemicals, ARC1024) to wild-type COX2 and mutant COX2 (N181A, T564A, S565A, S567A) was expressed as the concentration of N-acetyl sphingosine. […] By using the calculated Kcat and KM, Kcat/KM (catalytic efficiency), which has been widely used as a measure of enzyme performance, was calculated from wild-type COX2 and mutant-type COX2 (N181A, T564A, S565A, S567A).

[2] = biological target: T2, COX2 protein in neuroblastoma SH-SY5Y (Homo sapiens, UniProt P35354); assay: [14C] bound to COX2 immunoprecipitated from neuroblastoma SH-SY5Y cells treated with [14C]N-acetyl sphingosine; assay type: cell-based; conditions: neuroblastoma SH-SY5Y compared to control; 2 μCi; after 1 hour; FIG. 8
T2 construct: endogenous in cells; host or cells: SH-SY5Y neuroblastoma cells
T2 sequence (P35354 18-604): T1 sequence (P35354 18-604)
Method: In addition, neuroblastoma SH-SY5Y was treated with 2 μCi of [^14C]N-acetyl sphingosine (American Radiolabeled Chemicals, ARC1024) for 1 hour, and then cells were collected.
(§1) The COX2 protein of isolated microglia and neuroblastoma SH-SY5Y were isolated by immunoprecipitation, and then liquid scintillation counting was performed on [^14C].
In other words, [^14C]N-acetyl sphingosine ([^14C]N-AS), in which carbon of N-AS strongly binding to COX2 was substituted with an isotope, was treated to the cancer cells (2 μCi). After 1 hour, the COX2 was isolated from the control and the cancer cells, neuroblastoma SH-SY5Y by immunoprecipitation, and the amount of COX2 labeled with [^14C] was confirmed.

[3] = biological target: T3, COX2 protein in microglia (Mus musculus, UniProt Q05769); assay: [14C] bound to COX2 immunoprecipitated from microglia after oral [14C]N-acetyl sphingosine; assay type: in vivo; conditions: 5-month-old APP/PS1 Alzheimer's animal model compared to control (WT); 10 μCi oral; after 1 hour; FIG. 6
T3 construct: from tissue; host or cells: microglia isolated from the cerebrum of wild-type and APP/PS1 mice (C57BL/6 background)
T3 sequence (Q05769 18-604): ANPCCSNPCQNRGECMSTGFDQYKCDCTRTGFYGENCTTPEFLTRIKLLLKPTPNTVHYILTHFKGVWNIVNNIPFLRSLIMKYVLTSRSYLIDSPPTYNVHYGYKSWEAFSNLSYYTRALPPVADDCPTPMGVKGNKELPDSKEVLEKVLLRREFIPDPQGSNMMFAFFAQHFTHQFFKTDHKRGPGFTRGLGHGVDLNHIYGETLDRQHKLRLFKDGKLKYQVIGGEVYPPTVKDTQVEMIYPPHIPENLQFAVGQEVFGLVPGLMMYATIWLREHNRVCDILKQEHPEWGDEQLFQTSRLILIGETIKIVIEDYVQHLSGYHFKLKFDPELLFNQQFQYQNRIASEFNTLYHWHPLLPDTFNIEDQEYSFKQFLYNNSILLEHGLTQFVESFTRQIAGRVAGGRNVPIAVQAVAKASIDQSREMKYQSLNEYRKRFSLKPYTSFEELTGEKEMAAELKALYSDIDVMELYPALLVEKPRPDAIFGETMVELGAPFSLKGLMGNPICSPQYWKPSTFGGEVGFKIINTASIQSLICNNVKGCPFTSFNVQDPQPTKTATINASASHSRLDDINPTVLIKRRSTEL
From the text: Mouse experiments have been approved by the Kyungpook National University Institutional Animal Care and Use Committee (IACUC). A transgenic mouse line overexpressing APPswe (hAPP695swe) or PS1 (presenilin-1M146V) based on C57BL/6 mice (Charles River, UK) was used [Hereinafter, “APP mouse”: refers to a mouse overexpressing APPswe, “PS1 mouse”: refers to a mouse overexpressing presenilin-1M146V; GlaxoSmithKline]
After oral administration of 10 μCi of [^14C]N-acetyl sphingosine (American Radiolabeled Chemicals, ARC1024) to 5-month-old wild-type and APP/PS1 mice, microglia were isolated from the cerebra of the mice after 1 hour.
as §1
After 1 hour, the COX2 in microglia was isolated from the control and the Alzheimer's animal model by immunoprecipitation, and the amount of COX2 labeled with [^14C] was confirmed.

Kp ([1]; intravenous, tail vein administration 1 mg/kg)	Kp ([1]; oral administration 10 mg/kg)	concentration of N-AS in the brain ([1]; oral 10 mg/kg or tail vein 1 mg/kg, by time and after 24 hours, FIGS. 4A and 4B)	Kcat (wild type COX2)	Structure (SMILES)	amount of [14C]-labeled COX2 in cancer cells [2]	amount of [14C]-labeled COX2 in microglia [3]
2.16	3.18	high	0.008 s⁻¹	CCCCCCCCCCCCC/C=C/[C@@H](O)[C@H](CO)NC(C)=O [N-AS, N-acetyl sphingosine]	–	–
–	–	–	–	CCCCCCCCCCCCC/C=C/[C@@H](O)[C@H](CO)N[14C](C)=O [[^14C]N-AS, [^14C]N-acetyl sphingosine]	increased	increased
